The values below come from PubChem BioAssay (NCI).

Each structure is given as a SMILES string.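 Where inhibition never reached the appropriate level, the endpoint shown equals the highest concentration tested. Otherwise, values were interpolated linearly from a five-concentration, 48-hour dose response in 96-well plates. TGI: total growth inhibition.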

Test systems include SR leukemia; RPMI-8226 leukemia; SF-539 CNS; 786-0 renal; MDA-MB-435; BT-549 breast; MDA-N; HS 578T breast; PC-3 prostate; DU-145 prostate; T-47D breast; K-562 leukemia.
What all share (test): NCI anticancer screen, dose series, 48 h

`N#Cc1ccc([N+](=O)[O-])cc1NC(N)=S`: the TGI in the assay on SR leukemia, with RPMI-8226 leukemia and in the assay with SF-539 CNS was above 100 µM in each case.
In the case of `CC(=O)OCC1=CC2OC(=O)C3=COC(OC4OC(CO)C(O)C(O)C4O)C1C32` (stereo unspecified), the TGI in the assay on SR leukemia, in the assay with 786-0 renal, in the assay on RPMI-8226 leukemia, in the assay with MDA-MB-435, with SF-539 CNS and in the assay with BT-549 breast was above 100 µM throughout. Further, the TGI in the assay on MDA-N, with HS 578T breast, with PC-3 prostate, with DU-145 prostate and in the assay on T-47D breast was above 100 µM throughout.
For `O=C1/C(=C/C=C/c2ccccc2)N=C(c2ccccc2)N1c1ccc(S(=O)(=O)Nc2nccs2)cc1`, the TGI was above 100 µM in the assay on SR leukemia; above 100 µM with K-562 leukemia; above 100 µM in the assay on 786-0 renal; 68.2 µM in the assay with RPMI-8226 leukemia; above 100 µM in the assay on MDA-MB-435; 45.9 µM in the assay on SF-539 CNS. The TGI in the assay on BT-549 breast is 61.4 µM; in the assay with MDA-N, above 100 µM; in the assay on HS 578T breast, above 100 µM; with PC-3 prostate, above 100 µM; in the assay on DU-145 prostate it was above 100 µM; with T-47D breast, above 100 µM.
Turning to `O=c1oc2cc(O)ccc2c2oc3cc(O)ccc3c12`, the values for the TGI in the assay on K-562 leukemia, in the assay on RPMI-8226 leukemia and in the assay with SF-539 CNS were above 125 µM, above 125 µM and 122 µM, respectively.
In the case of `CC1(O)C2(c3ccccc3)CCC[N+]1(C)CC2` (stereo unspecified), the TGI in the assay with K-562 leukemia, with RPMI-8226 leukemia, with MDA-MB-435, in the assay on BT-549 breast, in the assay with MDA-N and in the assay with HS 578T breast was above 100 µM each time. In addition, the TGI in the assay with PC-3 prostate, in the assay on DU-145 prostate and with T-47D breast was above 100 µM each time.
As for `CC(=O)OCCCCN1C(=O)CSc2ccccc21`, the TGI in the assay on SR leukemia, in the assay with RPMI-8226 leukemia, with MDA-MB-435, in the assay on SF-539 CNS, with BT-549 breast and with MDA-N was above 100 µM each time. In addition, the TGI with HS 578T breast, with PC-3 prostate, with DU-145 prostate and in the assay on T-47D breast was above 100 µM throughout.
Consider `CC[C@@H]1CSC(/C=C/C2OC3OC(C)(C)OC3C3OC(C)(C)OC23)=N1` (stereo partly specified), for which the TGI in the assay with SR leukemia is 37.4 µM; in the assay on K-562 leukemia, 62.4 µM; in the assay on 786-0 renal it was 15.9 µM; with RPMI-8226 leukemia, 32.5 µM; in the assay with MDA-MB-435 it was 20 µM; with SF-539 CNS it was 30.4 µM. Further, the TGI came out at 13.4 µM with BT-549 breast; 21.3 µM in the assay on MDA-N; 75.2 µM with HS 578T breast; 26 µM in the assay on PC-3 prostate; 5.19 µM with DU-145 prostate; 16.8 µM with T-47D breast.
For the compound `CC(C)CNCCc1ccccn1`, the TGI in the assay on 786-0 renal, in the assay on MDA-MB-435, in the assay on BT-549 breast, with MDA-N, with HS 578T breast and in the assay on PC-3 prostate was above 100 µM in each case. This compound also gave a TGI in the assay with DU-145 prostate above 100 µM.
As for `C=CCn1c(=O)c(Br)nn(CCOCP(=O)(OCC)OCC)c1=O`, the TGI in the assay with SR leukemia, in the assay on K-562 leukemia, in the assay with RPMI-8226 leukemia, in the assay on MDA-MB-435, with SF-539 CNS and with MDA-N was above 100 µM throughout. The TGI with HS 578T breast, with PC-3 prostate, in the assay with DU-145 prostate and in the assay on T-47D breast was above 100 µM in each case.
Regarding `CN1c2c(nc(N)[nH]c2=O)NCC1CCNc1ccc(C(=O)NC(CCC(=O)O)C(=O)O)cc1` (stereo unspecified), the TGI worked out at 2530 µM with SR leukemia; 841 µM in the assay with K-562 leukemia; 1840 µM with 786-0 renal; 2930 µM in the assay with RPMI-8226 leukemia; 1770 µM in the assay with MDA-MB-435; 2190 µM in the assay on SF-539 CNS. The TGI was determined as 2750 µM in the assay on BT-549 breast; 430 µM in the assay with MDA-N; 5910 µM in the assay on HS 578T breast; 1750 µM in the assay with PC-3 prostate; 2660 µM in the assay with DU-145 prostate; 4260 µM with T-47D breast.
`CN(C)c1ccc(C2CC(=O)CC(c3ccc(N(C)C)cc3)C23C(=O)NC(=S)NC3=O)cc1` (stereo unspecified): the TGI in the assay with SR leukemia, with K-562 leukemia, in the assay with 786-0 renal, with RPMI-8226 leukemia, in the assay on MDA-MB-435 and with SF-539 CNS was above 100 µM in each case. Also, the TGI in the assay with MDA-N, with HS 578T breast, with PC-3 prostate, in the assay with DU-145 prostate and in the assay with T-47D breast was above 100 µM throughout.
Regarding `COc1ccc(C(=O)c2nc3ccccc3nc2N2CCN(c3ccccc3)CC2)cc1OC`, the TGI with SR leukemia, in the assay with K-562 leukemia, with 786-0 renal, in the assay on RPMI-8226 leukemia, in the assay on MDA-MB-435 and in the assay on SF-539 CNS was above 100 µM throughout. For the same compound, the TGI in the assay with MDA-N, with HS 578T breast, in the assay with PC-3 prostate, in the assay with DU-145 prostate and in the assay on T-47D breast was above 100 µM each time.
In the case of `Nc1nc(SCCNC(=O)CCc2ccc(O)c(I)c2)nc2c1ncn2C1OC(CO)C(O)C1O` (stereo unspecified), the TGI with SR leukemia, in the assay on K-562 leukemia and in the assay on SF-539 CNS was above 100 µM throughout.
For `COc1cc(NC(C)=O)ccc1C(=O)N/N=C/c1ccco1`, the TGI in the assay on SR leukemia, with K-562 leukemia, in the assay on 786-0 renal, with RPMI-8226 leukemia, in the assay with MDA-MB-435 and in the assay with SF-539 CNS was above 100 µM in each case. The TGI in the assay on BT-549 breast, with MDA-N, in the assay on HS 578T breast, with PC-3 prostate, with DU-145 prostate and in the assay on T-47D breast was above 100 µM each time.
